# What was measured:
# osteocalcin = experiment: Osteocalcin mRNA levels (qPCR) in pre-osteoblastic cell line MC3T3-E1 subclone 4; type: cell-based; details: 21 days of differentiation, without ascorbic acid; MK-7 3 μM, VitD 1 nM, VitA 100 nM (FIG. 1B)
# From the text: (§1) The pre-osteoblastic cell line MC3T3-E1 subclone 4 (CRL-2593) was purchased from ATCC (Manassas; Virginia, USA). Cells were maintained in growth medium (GM) composed of ascorbic acid-free aMEM (ThermoFisher Scientific), supplemented with 10% fetal calf serum (FCS, ThermoFisher Scientific) and 1% penicillin/streptomycin. All culture media were refreshed every 2-3 days. Cells were passaged with trypsin/EDTA solution at less than 80% confluence. To induce differentiation into osteoblasts, cells were seeded at 5×10^4 cells/cm^2 and grown to confluency in GM for 24 h. Then, the medium was switched to differentiation medium (DM) composed of GM supplemented with 10 mM β-glycerophosphate and treatment solutions of interest. Ascorbic acid 50 μg/ml was also added to the DM depending on the experiment.
# MC3T3-E1 subclone 4 cells were differentiated for 21 days (in DM without ascorbic acid except for the positive control) or 28 days (in DM containing ascorbic acid). Cells were then collected for gene expression analysis. […] RNA concentrations were measured using the DropSense96 (TRINEAN, Gentbrugge, Belgium).
# CDNAs were synthetized using High-Capacity cDNA Reverse Transcription Kit (AppliedBiosystems; Waltham, Massachusetts, USA) according to the manufacturer's instructions. […] The relative gene expression was evaluated via the 2^-ΔCt method.
# [1] = system: pre-osteoblastic cell line MC3T3-E1 subclone 4; experiment: Osteoblast alkaline phosphatase (ALP) activity; type: cell-based; details: 7 days of differentiation, without ascorbic acid; MK-7 3 μM, VitD 1 nM, VitA 100 nM (FIG. 1A)
# From the text: as §1
# MC3T3-E1 subclone 4 cells were differentiated for 7 days without ascorbic acid, except for the positive control, and with the following treatment solutions: a mix composed of 3μM of vit.K2 (menaquinone-7), 100 nM of vit.A (all-trans-retinoic acid) and 1 nM of vit.D (1a,25-Dihydroxyvitamin D3); a mix called “SCFA20” composed of 15 μM of sodium acetate, 4 μM of sodium propionate and 1 μM of sodium butyrate; a mix called “SCFA50” composed of 37.5 μM of sodium acetate, 10 μM of sodium propionate and 2.5 μM of sodium butyrate; a mix called “SCFA60” composed of 45 μM of sodium acetate, 12 μM of sodium propionate and 3 μM of sodium butyrate. The vitamin mix was also combined to the 3 different combinations of short-chain fatty acids (SCFA).
# After 7 days of differentiation, cells were then collected for alkaline phosphatase (ALP) activity measurement as described previously with minor modifications. […] Enzymatic reaction was monitored at 405 nm after 4-Nitrophenyl phosphate disodium salt hexahydrate addition. Michaelis-Menten kinetics were evaluated at 30° C. for 30 min. […] The activity value was normalized by protein content measured via the Pierce BCA Protein Assay Kit (ThermoFisher Scientific) according to the manufacturer's instructions.
smiles,measurement,setting,value
"CC1=C(/C=C/C(C)=C/C=C/C(C)=C/C(=O)O)C(C)(C)CCC1 [vitamin A, all-trans-retinoic acid]",Osteocalcin mRNA levels,osteocalcin,no significant effect
same,ALP activity (marker of osteoblast differentiation),[1],significant effect
"C=C1/C(=C\C=C2/CCC[C@]3(C)[C@@H]([C@H](C)CCCC(C)(C)O)CC[C@@H]23)C[C@@H](O)C[C@@H]1O [vitamin D, 1α,25-Dihydroxyvitamin D3]",Osteocalcin mRNA levels,osteocalcin,no significant effect
same,ALP activity (marker of osteoblast differentiation),[1],significant effect
"CC(C)=CCC/C(C)=C/CC/C(C)=C/CC/C(C)=C/CC/C(C)=C/CC/C(C)=C/CC/C(C)=C/CC1=C(C)C(=O)c2ccccc2C1=O [vitamin K2, menaquinone-7]",ALP activity (marker of osteoblast differentiation),[1],no significant effect

# — US20260315410A1, “COMBINATION FOR ENHANCING BONE GROWTH AND/OR BONE STRENGTH” (SOCIÉTÉ DES PRODUITS NESTLÉ S.A., priority 2023, published 2026)
